Laboratory results: patent publication US6355799B1, “Substituted benzene compounds, process for their preparation, and herbicidal and defoliant compositions containing them” (ISK Americas Incorporated, priority 1997, dated 2002)

Assays:
Format in all cases: in vivo
[1] = test system: redroot pigweed (Amaranthus retroflexus, AMARE); assay: Pre-emerge test, greenhouse herbicide activity screening; conditions: for Pre-emerge Herbicidal Activity, phytotoxicity rating (0-100), AMARE: rated 14 days after application, 0 = no damage, 100 = complete death; for phytotoxicity rating AMARE: pre-emerge, 14 days after application, rating scale 0-100
Method in brief: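 Visual ratings on a 0-100 scale (0 no damage, 100 all plants dead) were taken at 14 days after treatment. Rates of 15-1000 g ai/ha in acetone, 187 l/ha, were sprayed onto soil one day after planting (pre-emerge) or onto 2-3 leaf plants with 0.25% v/v surfactant (post-emerge).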

[2] = test system: barnyardgrass (Echinochloa crus-galli, ECHCG); assay: as above; conditions: for Pre-emerge Herbicidal Activity, phytotoxicity rating (0-100), ECHCG: rated 14 days after application, 0 = no damage, 100 = complete death; for phytotoxicity rating ECHCG: pre-emerge, 14 days after application, rating scale 0-100
Method in brief: (§1)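 Compounds in acetone were track-sprayed at 15–1000 g ai/ha: pre-emergence onto soil sown the previous day, then top-watered to incorporate and later bottom-watered; post-emergence onto 2–3 leaf plants with 0.25% v/v surfactant, bottom-watered only. Ratings on a 0–100 phytotoxicity scale were taken at day 14.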

[3] = test system: green foxtail (Setaria viridis, SETVI); assay: as above; conditions: for Pre-emerge Herbicidal Activity, phytotoxicity rating (0-100), SETVI: rated 14 days after application, 0 = no damage, 100 = complete death; for phytotoxicity rating SETVI: pre-emerge, 14 days after application, rating scale 0-100
Method in brief: as §1

[4] = test system: ivyleaf morningglory (Ipomoea hederacea, IPOHE); assay: as above; conditions: for Pre-emerge Herbicidal Activity, phytotoxicity rating (0-100), IPOHE: rated 14 days after application, 0 = no damage, 100 = complete death; for phytotoxicity rating IPOHE: pre-emerge, 14 days after application, rating scale 0-100
Method in brief: as §1

[5] = test system: johnsongrass (Sorghum halepense, SORHA); assay: as above; conditions: for Pre-emerge Herbicidal Activity, phytotoxicity rating (0-100), SORHA: rated 14 days after application, 0 = no damage, 100 = complete death; for phytotoxicity rating SORHA: pre-emerge, 14 days after application, rating scale 0-100
Method in brief: as §1

[6] = test system: lambsquarters (Chenopodium album, CHEAL); assay: as above; conditions: for Pre-emerge Herbicidal Activity, phytotoxicity rating (0-100), CHEAL: rated 14 days after application, 0 = no damage, 100 = complete death; for phytotoxicity rating CHEAL: pre-emerge, 14 days after application, rating scale 0-100
Method in brief: as §1

[7] = test system: large crabgrass (Digitaria sanguinalis, DIGSA); assay: as above; conditions: for Pre-emerge Herbicidal Activity, phytotoxicity rating (0-100), DIGSA: rated 14 days after application, 0 = no damage, 100 = complete death; for phytotoxicity rating DIGSA: pre-emerge, 14 days after application, rating scale 0-100
Method in brief: as §1

[8] = test system: sicklepod (Cassia obtusifolia, CASOB); assay: as above; conditions: for Pre-emerge Herbicidal Activity, phytotoxicity rating (0-100), CASOB: rated 14 days after application, 0 = no damage, 100 = complete death; for phytotoxicity rating CASOB: pre-emerge, 14 days after application, rating scale 0-100
Method in brief: as §1

[9] = test system: velvetleaf (Abutilon theophrasti, ABUTH); assay: as above; conditions: for Pre-emerge Herbicidal Activity, phytotoxicity rating (0-100), ABUTH: rated 14 days after application, 0 = no damage, 100 = complete death; for phytotoxicity rating ABUTH: pre-emerge, 14 days after application, rating scale 0-100
Method in brief: as §1

[10] = test system: field corn (Zea mays L., var. Dekalb 535, CORN); assay: Pre-emerge test, crop safety; conditions: rated 14 days after application, 0 = no damage, 100 = complete death
Method in brief: (§2)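 Compounds in acetone were track-sprayed at 187 l/ha, 15–1000 g ai/ha, onto sandy loam pots. Pre-emerge seeds were sown one day before spraying, with surface watering afterwards. Post-emerge plants were at the 2–3 leaf stage and sprayed with 0.25% v/v non-ionic surfactant. Injury was rated 0–100 at 14 days.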

[11] = test system: upland rice (Oryza sp., var. Tebonnet, RICE); assay: Pre-emerge test, crop safety; conditions: rated 14 days after application, 0 = no damage, 100 = complete death
Method in brief: as §2

[12] = test system: barnyardgrass (Echinochloa crus-galli, ECHCG); assay: Post-emerge test, greenhouse herbicide activity screening; conditions: post-emerge, 14 days after application, rating scale 0-100
Method in brief: (§3)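 Sandy loam pots; pre-emerge: sown 1 d pre-spray, surface-watered after, then bottom-watered. Post-emerge: sown 8–21 d before, 2–3 leaf stage, + 0.25% v/v NIS, bottom-watered. Acetone, 187 l/ha track spray, 15–1000 g ai/ha. 0–100 injury score, day 14.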

[13] = test system: green foxtail (Setaria viridis, SETVI); assay: as above; conditions: post-emerge, 14 days after application, rating scale 0-100
Method in brief: as §3

[14] = test system: ivyleaf morningglory (Ipomoea hederacea, IPOHE); assay: as above; conditions: post-emerge, 14 days after application, rating scale 0-100
Method in brief: as §3

[15] = test system: johnsongrass (Sorghum halepense, SORHA); assay: as above; conditions: post-emerge, 14 days after application, rating scale 0-100
Method in brief: as §3

[16] = test system: large crabgrass (Digitaria sanguinalis, DIGSA); assay: as above; conditions: post-emerge, 14 days after application, rating scale 0-100
Method in brief: as §3

[17] = test system: redroot pigweed (Amaranthus retroflexus, AMARE); assay: as above; conditions: post-emerge, 14 days after application
Method in brief: as §3

[18] = test system: sicklepod (Cassia obtusifolia, CASOB); assay: as above; conditions: post-emerge, 14 days after application, rating scale 0-100
Method in brief: as §3

[19] = test system: velvetleaf (Abutilon theophrasti, ABUTH); assay: as above; conditions: post-emerge, 14 days after application, rating scale 0-100
Method in brief: as §3

[20] = test system: field corn (Zea mays L., var. Dekalb 535, CORN); assay: Post-emerge test, crop safety; conditions: post-emerge, 14 days after application, rating scale 0-100
Method in brief: (§4)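 Rating: 0–100 visual injury, 14 DAA. Application: acetone, 187 l/ha, 15–1000 g ai/ha, flat-fan track sprayer with nozzle 40–45 cm above soil or canopy. Post-emerge runs used 0.25% v/v surfactant on 2–3 leaf plants.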

[21] = test system: upland rice (Oryza sp., var. Tebonnet, RICE); assay: Post-emerge test, crop safety; conditions: post-emerge, 14 days after application, rating scale 0-100
Method in brief: as §4

[22] = test system: lambsquarters (Chenopodium album, CHEAL); assay: Post-emerge test, greenhouse herbicide activity screening; conditions: post-emerge, 14 days after application, rating scale 0-100
Method in brief: as §3

[23] = 250 g ai/ha, rating scale 0-100

CCOC(=O)C(=O)Nc1c(OC)c(Cl)cc(F)c1-n1c(=O)cc(C(F)(F)F)n(C)c1=O [2-118]
Pre-emerge Herbicidal Activity, phytotoxicity rating (0-100), AMARE ([1]; 63 g ai/ha): 40
Pre-emerge Herbicidal Activity, phytotoxicity rating (0-100), AMARE ([1]; 250 g ai/ha): 100
Pre-emerge Herbicidal Activity, phytotoxicity rating (0-100), ECHCG ([2]; 63 g ai/ha): 0
Pre-emerge Herbicidal Activity, phytotoxicity rating (0-100), ECHCG ([2]; 250 g ai/ha): 0
Pre-emerge Herbicidal Activity, phytotoxicity rating (0-100), SETVI ([3]; 63 g ai/ha): 0
Pre-emerge Herbicidal Activity, phytotoxicity rating (0-100), SETVI ([3]; 250 g ai/ha): 50
Pre-emerge Herbicidal Activity, phytotoxicity rating (0-100), IPOHE ([4]; 63 g ai/ha): 10
Pre-emerge Herbicidal Activity, phytotoxicity rating (0-100), IPOHE ([4]; 250 g ai/ha): 80
Pre-emerge Herbicidal Activity, phytotoxicity rating (0-100), SORHA ([5]; 63 g ai/ha): 0
Pre-emerge Herbicidal Activity, phytotoxicity rating (0-100), SORHA ([5]; 250 g ai/ha): 0
Pre-emerge Herbicidal Activity, phytotoxicity rating (0-100), CHEAL ([6]; 63 g ai/ha): 90
Pre-emerge Herbicidal Activity, phytotoxicity rating (0-100), CHEAL ([6]; 250 g ai/ha): 100
Pre-emerge Herbicidal Activity, phytotoxicity rating (0-100), DIGSA ([7]; 63 g ai/ha): 0
Pre-emerge Herbicidal Activity, phytotoxicity rating (0-100), DIGSA ([7]; 250 g ai/ha): 20
Pre-emerge Herbicidal Activity, phytotoxicity rating (0-100), CASOB ([8]; 63 g ai/ha): 90
Pre-emerge Herbicidal Activity, phytotoxicity rating (0-100), CASOB ([8]; 250 g ai/ha): 40
Pre-emerge Herbicidal Activity, phytotoxicity rating (0-100), ABUTH ([9]; 63 g ai/ha): 90
Pre-emerge Herbicidal Activity, phytotoxicity rating (0-100), ABUTH ([9]; 250 g ai/ha): 100
Pre-emerge phytotoxicity rating (0-100), crop damage, CORN ([10]; 63 g ai/ha): 0
Pre-emerge phytotoxicity rating (0-100), crop damage, CORN ([10]; 250 g ai/ha): 10
Pre-emerge phytotoxicity rating (0-100), crop damage, RICE ([11]; 63 g ai/ha): 0
Pre-emerge phytotoxicity rating (0-100), crop damage, RICE ([11]; 250 g ai/ha): 30
phytotoxicity rating ECHCG ([12]; 63 g ai/ha): 0
phytotoxicity rating ECHCG ([12]; 250 g ai/ha): 0
phytotoxicity rating SETVI ([13]; 63 g ai/ha): 0
phytotoxicity rating SETVI ([13]; 250 g ai/ha): 0
phytotoxicity rating IPOHE ([14]; 63 g ai/ha): 50
phytotoxicity rating IPOHE ([14]; 250 g ai/ha): 90
phytotoxicity rating SORHA ([15]; 63 g ai/ha): 0
phytotoxicity rating SORHA ([15]; 250 g ai/ha): 0
phytotoxicity rating DIGSA ([16]; 63 g ai/ha): 0
phytotoxicity rating DIGSA ([16]; 250 g ai/ha): 0
phytotoxicity rating AMARE ([17]; 63 g ai/ha, rating scale 0-100): 30
phytotoxicity rating AMARE [17, 23]: 30
phytotoxicity rating CASOB ([18]; 63 g ai/ha): 0
phytotoxicity rating CASOB ([18]; 250 g ai/ha): 30
phytotoxicity rating ABUTH ([19]; 63 g ai/ha): 60
phytotoxicity rating ABUTH ([19]; 250 g ai/ha): 80
phytotoxicity rating CORN ([20]; 63 g ai/ha): 10
phytotoxicity rating CORN ([20]; 250 g ai/ha): 20
phytotoxicity rating RICE ([21]; 63 g ai/ha): 10
phytotoxicity rating RICE ([21]; 250 g ai/ha): 10

COc1c(Cl)cc(F)c(-n2c(=O)cc(C(F)(F)F)n(C)c2=O)c1OC(=O)c1ccc2ccccc2c1 [Compound 16-7, 3-[4-chloro-6fluoro-3-methoxy-2-(2-naphthoyloxy)phenyl]-1-methyl-6-trifluoromethyl-2,4(1H, 3H)-pyrimidinedione]
phytotoxicity rating AMARE ([1]; 63 g ai/ha): 0
phytotoxicity rating AMARE ([1]; 250 g ai/ha): 50
phytotoxicity rating ECHCG ([2]; 63 g ai/ha): 0
phytotoxicity rating ECHCG ([2]; 250 g ai/ha): 0
phytotoxicity rating SETVI ([3]; 63 g ai/ha): 0
phytotoxicity rating SETVI ([3]; 250 g ai/ha): 0
phytotoxicity rating IPOHE ([4]; 63 g ai/ha): 0
phytotoxicity rating IPOHE ([4]; 250 g ai/ha): 0
phytotoxicity rating SORHA ([5]; 63 g ai/ha): 0
phytotoxicity rating SORHA ([5]; 250 g ai/ha): 0
phytotoxicity rating CHEAL ([6]; 63 g ai/ha): 0
phytotoxicity rating CHEAL ([6]; 250 g ai/ha): 0
phytotoxicity rating DIGSA ([7]; 63 g ai/ha): 0
phytotoxicity rating DIGSA ([7]; 250 g ai/ha): 0
phytotoxicity rating CASOB ([8]; 63 g ai/ha): 0
phytotoxicity rating CASOB ([8]; 250 g ai/ha): 0
phytotoxicity rating ABUTH ([9]; 63 g ai/ha): 0
phytotoxicity rating ABUTH ([9]; 250 g ai/ha): 0
Post-emerge Herbicidal Activity ECHCG (phytotoxicity rating) ([12]; 63 g ai/ha): 0
Post-emerge Herbicidal Activity ECHCG (phytotoxicity rating) ([12]; 250 g ai/ha): 0
Post-emerge Herbicidal Activity SETVI (phytotoxicity rating) ([13]; 63 g ai/ha): 0
Post-emerge Herbicidal Activity SETVI (phytotoxicity rating) ([13]; 250 g ai/ha): 0
Post-emerge Herbicidal Activity IPOHE (phytotoxicity rating) ([14]; 63 g ai/ha): 0
Post-emerge Herbicidal Activity IPOHE (phytotoxicity rating) ([14]; 250 g ai/ha): 30
Post-emerge Herbicidal Activity SORHA (phytotoxicity rating) ([15]; 63 g ai/ha): 0
Post-emerge Herbicidal Activity SORHA (phytotoxicity rating) ([15]; 250 g ai/ha): 0
Post-emerge Herbicidal Activity CHEAL (phytotoxicity rating) ([22]; 63 g ai/ha): 0
Post-emerge Herbicidal Activity CHEAL (phytotoxicity rating) ([22]; 250 g ai/ha): 0
Post-emerge Herbicidal Activity DIGSA (phytotoxicity rating) ([16]; 63 g ai/ha): 0
Post-emerge Herbicidal Activity DIGSA (phytotoxicity rating) ([16]; 250 g ai/ha): 0
Post-emerge Herbicidal Activity AMARE (phytotoxicity rating) ([17]; 63 g ai/ha, rating scale 0-100 (0 no damage, 100 complete death)): 0
Post-emerge Herbicidal Activity AMARE (phytotoxicity rating) [17, 23]: 0
Post-emerge Herbicidal Activity CASOB (phytotoxicity rating) ([18]; 63 g ai/ha): 0
Post-emerge Herbicidal Activity CASOB (phytotoxicity rating) ([18]; 250 g ai/ha): 30
Post-emerge Herbicidal Activity ABUTH (phytotoxicity rating) ([19]; 63 g ai/ha): 0
Post-emerge Herbicidal Activity ABUTH (phytotoxicity rating) ([19]; 250 g ai/ha): 0
